# Tests used:
# [1] = target: T1, Recombinant CYP3A4 Supersomes (Homo sapiens, UniProt P08684); assay: Recombinant CYP3A4 Clearance Assay; format: in vitro ADME; settings: for % of Control (intrinsic clearance relative to the control compound): observed CLint divided by average CLint of undeuterated control compound; for Half-Life / CLint: recombinant CYP3A4 50 pmol/mL, 1 μM substrate, NADPH; for Half-Life: 0-120 minutes; for CLint: control = geometric mean of 3 replicates
# T1 construct: purchased
# Method: The CYP3A4 Clearance Assay was performed to determine the stability of deuterated compounds described herein and calculate changes in clearance relative to the control compound (undeuterated compound) that has the following structure:
# Recombinant CYP3A4 Supersomes were prepared in 100 mM potassium phosphate buffer (50 pmol/mL final recombinase) and 80 μL aliquots were delivered per well to 96-well reaction plates containing 10 μL/well stock working solution containing substrate at 10× final concentration in 0.1:9.9:90 DMSO:ACN:100 mM phosphate buffer. Final substrate concentration during incubation was 1 μM. Reaction mixtures were pre-incubated at 37° C. for 10 minutes, prior to addition of 10 μL/well of NADPH regenerating system to initiate the reaction (β-Nicotinamide adenine dinucleotide phosphate) or 100 mM phosphate as a buffer control.
# Clearance assessments were performed for test compounds in singlicate except for the control compound, which was tested in triplicate. Incubations were maintained at 37° C. for 0, 5, 15, 30, 45, 60, 90, and 120 minutes (or 0 and 120 minutes for buffer control). The reactions were terminated with 3× volume of cold (4° C.) acetonitrile (ACN) containing 200 ng/mL tolbutamide and 200 ng/mL labetalol as internal standards (IS). The crash plates were centrifuged at 4000 rpm at 4° C. for 20 min to precipitate residual protein. Following protein precipitation, sample supernatants were harvested and 3× volume of HPLC grade water was added to each sample for chromatography purposes. Plates were sealed and shaken for 10 minutes prior to LC-MS/MS analysis using generic LCMS/MS conditions.
# (§1) LC-MS/MS chromatograms were analyzed by peak area ratio (test article peak area/internal standard peak area) and natural log transformed, and plotted against time. The slope of the line was determined to calculate elimination rate constant. Subsequently, half-life (t1/2) and intrinsic clearance (CLint) were calculated using the following equations: […]
# Average intrinsic clearance of the control compound was determined by taking the geometric mean of 3 replicates.
# [2] = Hμrel Low Clearance Assay; format: in vitro ADME, human; parameters: % of Control (intrinsic clearance relative to the control compound): tested at 1 µM; settings: HμRELhumanPool 96-well hepatic co-culture, human hepatic co-culture, 1 μM substrate, 0-72 hr incubation, control = geometric mean of 3 replicates
# Method: (§2) The Hμrel Low Clearance Assay was performed to determine the stability of deuterated compounds described herein and calculate changes in clearance relative to the control compound (undeuterated compound) that has the following structure:
# (§3) HμRELhumanPool™ 96-well hepatic co-culture plates were media changed and cells were allowed to acclimatize at 37° C. for 20 hr. HμREL® incubation media (serum free) and test compound diluted from a 1000×DMSO stock (final substrate concentration 1 μM; final DMSO concentration 0.1%) were added to the HμREL© 96-well co-culture system at a final cell number of 30,000 cells per well to initiate the reaction. The final incubation volume was 80 μL per time point and two control compounds were included for reference (ketoprofen and prednisolone). All clearance assessments were performed in singlicate with the exception of the undeuterated control compound, which was tested in duplicate on two separate days for a total of 4 replicates. Each compound was incubated for 0, 2, 6, 24, 48 and 72 hr. The reactions were terminated by transferring 60 μL of incubate to 180 μL acetonitrile containing internal standard at the appropriate time points. The crash plates were centrifuged at 3000 rpm at 4° C. for 20 min to precipitate residual protein. Following protein precipitation, sample supernatants were combined in cassettes of up to 4 compounds and analyzed using generic LCMS/MS conditions.
# as §1
# (§4) Average clearance of the control compound was determined by taking the geometric mean of 3 of the four replicates. The fourth replicate was excluded from the average determination as an outlier.
# [3] = system: HμRELhumanPool 96-well hepatic co-culture; assay: Hμrel Low Clearance Assay; format: in vitro ADME, human; parameters: % of Control (intrinsic clearance relative to the control compound): tested at 1 µM; settings: for Half-Life: human hepatic co-culture, 1 μM substrate, 0-72 hr incubation; for % of Control (intrinsic clearance relative to the control compound): observed CLint divided by average CLint of undeuterated control compound
# Method: as §2, §3, §1, §4
# T1 sequence (P08684 whole entry): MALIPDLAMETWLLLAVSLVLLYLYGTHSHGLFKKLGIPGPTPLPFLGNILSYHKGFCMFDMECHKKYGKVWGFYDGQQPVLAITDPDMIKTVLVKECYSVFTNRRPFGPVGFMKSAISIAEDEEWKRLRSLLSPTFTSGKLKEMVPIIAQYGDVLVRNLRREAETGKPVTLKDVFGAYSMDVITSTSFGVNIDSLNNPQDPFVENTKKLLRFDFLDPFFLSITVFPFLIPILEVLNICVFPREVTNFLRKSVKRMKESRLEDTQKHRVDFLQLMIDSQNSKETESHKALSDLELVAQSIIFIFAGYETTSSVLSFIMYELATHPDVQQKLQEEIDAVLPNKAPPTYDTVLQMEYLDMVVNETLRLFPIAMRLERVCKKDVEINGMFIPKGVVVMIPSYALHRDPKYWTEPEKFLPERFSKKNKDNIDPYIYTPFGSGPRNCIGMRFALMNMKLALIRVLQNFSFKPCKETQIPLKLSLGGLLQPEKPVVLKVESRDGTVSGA
Compound,% of Control (intrinsic clearance relative to the control compound) [1] [%],Half-Life [1] [h],CLint [1] [µL/min/pmol],hepatocyte CLint at 1 μM ([2]; human) [µL/min/1e6 cells],Half-Life [3] [h],% of Control (intrinsic clearance relative to the control compound) [3] [%],hepatocyte CLint at 1 μM [2] [µL/min/1e6 cells]
"[2H]C1([2H])N(CC(=O)NC(C)(C)C)C([2H])([2H])C([2H])([2H])C([2H])(CNC(=O)c2cc(F)cc(Cl)c2)C1([2H])[2H] [Compound 1, N-[[1-[2-(tert-butylamino)-2-oxo-ethyl]-2,2,3,3,4,5,5,6,6-nonadeuterio-4-piperidyl]methyl]-3-chloro-5-fluoro-benzamide]",65.3,0.202,1.15,0.539,57.17,38.1,–
"[2H]C1([2H])CC(CNC(=O)c2cc(F)cc(Cl)c2)CC([2H])([2H])N1CC(=O)NC(C)(C)C [Compound 2, N-[[1-[2-(tert-butylamino)-2-oxo-ethyl]-2,2,6,6-tetradeuterio-4-piperidyl]methyl]-3-chloro-5-fluoro-benzamide]",68.5,0.192,1.21,–,25.5,85.5,1.21
"[2H]C1([2H])CN(CC(=O)NC(C)(C)C)CC([2H])([2H])C1CNC(=O)c1cc(F)cc(Cl)c1 [Compound 3, N-[[1-[2-(tert-butylamino)-2-oxo-ethyl]-3,3,5,5-tetradeuterio-4-piperidyl]methyl]-3-chloro-5-fluoro-benzamide]",82.3,0.16,1.45,1.47,21,104,–
"[2H]C([2H])(NC(=O)c1cc(F)cc(Cl)c1)C1CCN(CC(=O)NC(C)(C)C)CC1 [Compound 4, N-[[1-[2-(tert-butylamino)-2-oxo-ethyl]-4-piperidyl]-dideuterio-methyl]-3-chloro-5-fluoro-benzamide]",98.6,0.133,1.74,1.5,20.5,106,–
"[2H]C([2H])(NC(=O)c1cc(F)cc(Cl)c1)C1CCN(CC(=O)NC(C([2H])([2H])[2H])(C([2H])([2H])[2H])C([2H])([2H])[2H])CC1 [Compound 5, 3-chloro-N-[dideuterio-[1-[2-oxo-2-[[2,2,2-trideuterio-1,1-bis(trideuteriomethyl)ethyl]amino]ethyl]-4-piperidyl]methyl]-5-fluoro-benzamide]",94.1,0.14,1.66,1.32,23.33,93.3,–
"[2H]C([2H])(C(=O)NC(C)(C)C)N1CCC(CNC(=O)c2cc(F)cc(Cl)c2)CC1 [Compound 6, N-[[1-[2-(tert-butylamino)-1,1-dideuterio-2-oxo-ethyl]-4-piperidyl]methyl]-3-chloro-5-fluoro-benzamide]",77.2,0.17,1.36,1.41,21.83,99.6,–
"[2H]C([2H])([2H])C(C)(C)NC(=O)CN1CCC(CNC(=O)c2cc(F)cc(Cl)c2)CC1 [Compound 7, 3-chloro-5-fluoro-N-[[1-[2-oxo-2-[(2,2,2-trideuterio-1,1-dimethyl-ethyl)amino]ethyl]-4-piperidyl]methyl]benzamide]",100,0.132,1.76,1.41,21.83,99.6,–
"[2H]C1([2H])CN(CC(=O)NC(C([2H])([2H])[2H])(C([2H])([2H])[2H])C([2H])([2H])[2H])CC([2H])([2H])C1CNC(=O)c1cc(F)cc(Cl)c1 [Compound 8, 3-chloro-5-fluoro-N-[[3,3,5,5-tetradeuterio-1-[2-oxo-2-[[2,2,2-trideuterio-1,1-bis(trideuteriomethyl)ethyl]amino]ethyl]-4-piperidyl]methyl]benzamide]",88.4,0.148,1.56,1.28,24,90.5,–
"[2H]C1([2H])CN(CC(=O)NC(C)(C)C([2H])([2H])[2H])CC([2H])([2H])C1CNC(=O)c1cc(F)cc(Cl)c1 [Compound 9, 3-chloro-5-fluoro-N-[[3,3,5,5-tetradeuterio-1-[2-oxo-2-[(2,2,2-trideuterio-1,1-dimethyl-ethyl)amino]ethyl]-4-piperidyl]methyl]benzamide]",76.6,0.172,1.35,1.18,26.17,83.4,–
"[2H]C([2H])(NC(=O)c1cc(F)cc(Cl)c1)C1CCN(CC(=O)NC(C)(C)C([2H])([2H])[2H])CC1 [Compound 10, 3-chloro-N-[dideuterio-[1-[2-oxo-2-[(2,2,2-trideuterio-1,1-dimethyl-ethyl)amino]ethyl]-4-piperidyl]methyl]-5-fluoro-benzamide]",81.1,0.162,1.43,0.91,33.83,64.3,–
"[2H]C([2H])([2H])C(NC(=O)CN1C([2H])([2H])C([2H])([2H])C([2H])(CNC(=O)c2cc(F)cc(Cl)c2)C([2H])([2H])C1([2H])[2H])(C([2H])([2H])[2H])C([2H])([2H])[2H] [Compound 12, 3-chloro-5-fluoro-N-[[2,2,3,3,4,5,5,6,6-nonadeuterio-1-[2-oxo-2-[[2,2,2-trideuterio-1,1-bis(trideuteriomethyl)ethyl]amino]ethyl]-4-piperidyl]methyl]benzamide]",60.3,0.218,1.06,0.676,45.5,47.8,–
"[2H]C([2H])([2H])C(C)(NC(=O)CN1CCC(CNC(=O)c2cc(F)cc(Cl)c2)CC1)C([2H])([2H])[2H] [Compound 14, 3-chloro-5-fluoro-N-[[1-[2-oxo-2-[[2,2,2-trideuterio-1-methyl-1-(trideuteriomethyl)ethyl]amino]ethyl]-4-piperidyl]methyl]benzamide]",105,0.125,1.85,0.885,34.83,62.5,–

# — patent publication US20240025852A1, “T-TYPE CALCIUM CHANNEL MODULATORS AND METHODS OF USE THEREOF” (PRAXIS PRECISION MEDICINES, INC., priority 2020, published 2024)
